What was measured:
[1] = system: Rattus norvegicus; experiment: Effect on behavioural activity in ip dosed rat assessed as cocaine-induced lever response pretreated with cocaine by drug-discrimination studies; assay type: functional
[2] = system: Mus musculus; experiment: Antidepressant activity in ip dosed mouse assessed as time to reach peak stimulation of locomotor activity; assay type: functional
[3] = system: Rattus norvegicus; experiment: Effect on behavioural activity in rat assessed as cocaine-induced lever response at 50 mg/kg, ip pretreated with cocaine for 15 mins by drug-discrimination studies; assay type: functional; details: route intraperitoneal
[4] = system: Rattus norvegicus; experiment: Effect on behavioural activity in rat assessed as cocaine-induced lever response at 2.5 mg/kg, ip pretreated with cocaine for 15 mins by drug-discrimination studies; assay type: functional; details: route intraperitoneal
[5] = system: Mus musculus; experiment: Antidepressant activity in ip dosed mouse assessed as duration of locomotor activity; assay type: functional
[6] = system: Rattus norvegicus; experiment: Effect on behavioural activity in rat assessed as cocaine-induced lever response at 100 mg/kg, ip pretreated with cocaine for 15 mins by drug-discrimination studies; assay type: functional; details: route intraperitoneal
[7] = system: Rattus norvegicus; experiment: Effect on behavioural activity in rat assessed as cocaine-induced lever response at 5 mg/kg, ip pretreated with cocaine for 15 mins by drug-discrimination studies; assay type: functional; details: route intraperitoneal
[8] = system: Mus musculus; experiment: Antidepressant activity in ip dosed mouse assessed as stimulation of locomotor activity relative to cocaine; assay type: functional
[9] = system: Rattus norvegicus; experiment: Effect on behavioural activity in rat assessed as cocaine-induced lever response at 0.5 mg/kg, ip pretreated with cocaine for 15 mins by drug-discrimination studies; assay type: functional; details: route intraperitoneal
[10] = target: T1, Sodium-dependent serotonin transporter (Homo sapiens, UniProt P31645); experiment: biochemical; assay type: cell-based, HEK293
[11] = system: Rattus norvegicus; experiment: Effect on behavioural activity in rat assessed as cocaine-induced lever response at 25 mg/kg, ip pretreated with cocaine for 15 mins by drug-discrimination studies; assay type: functional; details: route intraperitoneal
[12] = system: Mus musculus; experiment: Antidepressant activity in ip dosed mouse assessed as stimulation of locomotor activity; assay type: functional
[13] = system: Rattus norvegicus; experiment: Effect on behavioural activity in rat assessed as cocaine-induced lever response at 1 mg/kg, ip pretreated with cocaine for 15 mins by drug-discrimination studies; assay type: functional; details: route intraperitoneal
[14] = target: T2, Sodium-dependent noradrenaline transporter (Homo sapiens, UniProt P23975); experiment: Displacement of [125I]RTI55 from cloned human NET expressed in HEK293 cells; assay type: cell-based
[15] = system: Rattus norvegicus; experiment: Effect on behavioural activity in rat assessed as cocaine-induced lever response at 10 mg/kg, ip pretreated with cocaine for 15 mins by drug-discrimination studies; assay type: functional; details: route intraperitoneal
[16] = target: T3, Sodium-dependent dopamine transporter (Homo sapiens, UniProt Q01959); experiment: Displacement of [125I]RTI55 from cloned human DAT expressed in HEK293 cells; assay type: cell-based
[17] = system: Rattus norvegicus; experiment: Effect on behavioural activity in rat assessed as cocaine-induced lever response at 0.25 mg/kg, po pretreated with cocaine for 360 mins by drug-discrimination studies; assay type: functional
[18] = system: Rattus norvegicus; experiment: Effect on behavioural activity in rat assessed as cocaine-induced lever response at 0.25 mg/kg, ip pretreated with cocaine for 15 mins by drug-discrimination studies; assay type: functional; details: route intraperitoneal
[19] = system: Rattus norvegicus; experiment: Effect on behavioural activity in rat assessed as cocaine-induced lever response at 0.5 mg/kg, po pretreated with cocaine for 180 mins by drug-discrimination studies; assay type: functional
[20] = system: Rattus norvegicus; experiment: Effect on behavioural activity in po dosed rat assessed as cocaine-induced lever response pretreated with cocaine by drug-discrimination studies; assay type: functional
[21] = system: Rattus norvegicus; experiment: Effect on behavioural activity in rat assessed as cocaine-induced lever response at 25 mg/kg, po pretreated with cocaine for 45 mins by drug-discrimination studies; assay type: functional
[22] = system: Rattus norvegicus; experiment: Effect on behavioural activity in rat assessed as cocaine-induced lever response at 0.5 mg/kg, po pretreated with cocaine for 45 mins by drug-discrimination studies; assay type: functional
[23] = system: Rattus norvegicus; experiment: Effect on behavioural activity in rat assessed as cocaine-induced lever response at 10 mg/kg, po pretreated with cocaine for 90 mins by drug-discrimination studies; assay type: functional
[24] = system: Rattus norvegicus; experiment: Effect on behavioural activity in rat assessed as cocaine-induced lever response at 0.5 mg/kg, po pretreated with cocaine for 360 mins by drug-discrimination studies; assay type: functional
[25] = system: Rattus norvegicus; experiment: Effect on behavioural activity in rat assessed as cocaine-induced lever response at 25 mg/kg, po pretreated with cocaine for 90 mins by drug-discrimination studies; assay type: functional
[26] = system: Rattus norvegicus; experiment: Effect on behavioural activity in rat assessed as cocaine-induced lever response at 5 mg/kg, po pretreated with cocaine for 360 mins by drug-discrimination studies; assay type: functional
[27] = system: Rattus norvegicus; experiment: Effect on behavioural activity in rat assessed as cocaine-induced lever response at 0.5 mg/kg, po pretreated with cocaine for 90 mins by drug-discrimination studies; assay type: functional
[28] = system: Rattus norvegicus; experiment: Effect on behavioural activity in rat assessed as cocaine-induced lever response at 10 mg/kg, po pretreated with cocaine for 45 mins by drug-discrimination studies; assay type: functional
[29] = system: Rattus norvegicus; experiment: Effect on behavioural activity in rat assessed as cocaine-induced lever response at 5 mg/kg, po pretreated with cocaine for 180 mins by drug-discrimination studies; assay type: functional
[30] = system: Rattus norvegicus; experiment: Effect on behavioural activity in rat assessed as cocaine-induced lever response at 10 mg/kg, po pretreated with cocaine for 360 mins by drug-discrimination studies; assay type: functional
[31] = system: Rattus norvegicus; experiment: Effect on behavioural activity in rat assessed as cocaine-induced lever response at 0.25 mg/kg, po pretreated with cocaine for 45 mins by drug-discrimination studies; assay type: functional
[32] = system: Rattus norvegicus; experiment: Effect on behavioural activity in rat assessed as cocaine-induced lever response at 1 mg/kg, po pretreated with cocaine for 90 mins by drug-discrimination studies; assay type: functional
[33] = system: Rattus norvegicus; experiment: Effect on behavioural activity in rat assessed as cocaine-induced lever response at 5 mg/kg, po pretreated with cocaine for 45 mins by drug-discrimination studies; assay type: functional
[34] = system: Rattus norvegicus; experiment: Effect on behavioural activity in rat assessed as cocaine-induced lever response at 0.1 mg/kg, ip pretreated with cocaine for 15 mins by drug-discrimination studies; assay type: functional; details: route intraperitoneal
[35] = system: Rattus norvegicus; experiment: Effect on behavioural activity in rat assessed as cocaine-induced lever response at 10 mg/kg, po pretreated with cocaine for 180 mins by drug-discrimination studies; assay type: functional
[36] = system: Rattus norvegicus; experiment: Effect on behavioural activity in rat assessed as cocaine-induced lever response at 2.5 mg/kg, po pretreated with cocaine for 45 mins by drug-discrimination studies; assay type: functional
[37] = system: Rattus norvegicus; experiment: Effect on behavioural activity in rat assessed as cocaine-induced lever response at 2.5 mg/kg, po pretreated with cocaine for 90 mins by drug-discrimination studies; assay type: functional
[38] = system: Rattus norvegicus; experiment: Effect on behavioural activity in rat assessed as cocaine-induced lever response at 1 mg/kg, po pretreated with cocaine for 180 mins by drug-discrimination studies; assay type: functional
[39] = system: Rattus norvegicus; experiment: Effect on behavioural activity in rat assessed as cocaine-induced lever response at 2.5 mg/kg, po pretreated with cocaine for 360 mins by drug-discrimination studies; assay type: functional
[40] = system: Rattus norvegicus; experiment: Effect on behavioural activity in rat assessed as cocaine-induced lever response at 1 mg/kg, po pretreated with cocaine for 41 mins by drug-discrimination studies; assay type: functional
[41] = system: Rattus norvegicus; experiment: Effect on behavioural activity in rat assessed as cocaine-induced lever response at 1 mg/kg, po pretreated with cocaine for 360 mins by drug-discrimination studies; assay type: functional
[42] = system: Rattus norvegicus; experiment: Effect on behavioural activity in rat assessed as cocaine-induced lever response at 0.25 mg/kg, po pretreated with cocaine for 90 mins by drug-discrimination studies; assay type: functional
[43] = system: Rattus norvegicus; experiment: Effect on behavioural activity in rat assessed as cocaine-induced lever response at 2.5 mg/kg, po pretreated with cocaine for 180 mins by drug-discrimination studies; assay type: functional
[44] = system: Rattus norvegicus; experiment: Effect on behavioural activity in rat assessed as cocaine-induced lever response at 25 mg/kg, po pretreated with cocaine for 360 mins by drug-discrimination studies; assay type: functional
[45] = system: Rattus norvegicus; experiment: Effect on behavioural activity in rat assessed as cocaine-induced lever response at 0.25 mg/kg, po pretreated with cocaine for 180 mins by drug-discrimination studies; assay type: functional
[46] = system: Rattus norvegicus; experiment: Effect on behavioural activity in rat assessed as cocaine-induced lever response at 25 mg/kg, po pretreated with cocaine for 180 mins by drug-discrimination studies; assay type: functional
[47] = system: Rattus norvegicus; experiment: Effect on behavioural activity in rat assessed as cocaine-induced lever response at 5 mg/kg, po pretreated with cocaine for 90 mins by drug-discrimination studies; assay type: functional
[48] = target: T3, Sodium-dependent dopamine transporter; experiment: Inhibition of [3H]dopamine reuptake at human DAT expressed in HEK293 cells; assay type: cell-based
[49] = target: T1, Sodium-dependent serotonin transporter; experiment: Inhibition of [3H]serotonin reuptake at human SERT expressed in HEK293 cells; assay type: cell-based
[50] = target: T2, Sodium-dependent noradrenaline transporter; experiment: Inhibition of [3H]norepinephrine reuptake at human NET expressed in HEK293 cells; assay type: cell-based

T1 sequence (P31645 whole entry): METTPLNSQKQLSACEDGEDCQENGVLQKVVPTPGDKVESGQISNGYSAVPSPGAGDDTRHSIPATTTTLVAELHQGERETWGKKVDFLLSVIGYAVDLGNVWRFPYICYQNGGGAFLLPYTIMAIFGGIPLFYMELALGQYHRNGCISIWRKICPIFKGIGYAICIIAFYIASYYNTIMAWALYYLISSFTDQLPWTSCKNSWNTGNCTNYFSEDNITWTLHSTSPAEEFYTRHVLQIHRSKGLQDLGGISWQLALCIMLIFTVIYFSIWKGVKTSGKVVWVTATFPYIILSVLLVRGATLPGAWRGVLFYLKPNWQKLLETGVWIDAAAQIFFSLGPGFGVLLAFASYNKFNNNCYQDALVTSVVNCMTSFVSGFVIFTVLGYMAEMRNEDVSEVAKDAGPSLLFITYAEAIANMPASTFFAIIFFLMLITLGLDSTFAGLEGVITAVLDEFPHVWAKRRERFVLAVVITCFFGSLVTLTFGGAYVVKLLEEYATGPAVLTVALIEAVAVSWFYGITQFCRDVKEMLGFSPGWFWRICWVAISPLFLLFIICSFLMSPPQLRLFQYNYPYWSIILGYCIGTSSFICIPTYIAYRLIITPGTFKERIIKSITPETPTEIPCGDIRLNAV
T2 sequence (P23975 whole entry): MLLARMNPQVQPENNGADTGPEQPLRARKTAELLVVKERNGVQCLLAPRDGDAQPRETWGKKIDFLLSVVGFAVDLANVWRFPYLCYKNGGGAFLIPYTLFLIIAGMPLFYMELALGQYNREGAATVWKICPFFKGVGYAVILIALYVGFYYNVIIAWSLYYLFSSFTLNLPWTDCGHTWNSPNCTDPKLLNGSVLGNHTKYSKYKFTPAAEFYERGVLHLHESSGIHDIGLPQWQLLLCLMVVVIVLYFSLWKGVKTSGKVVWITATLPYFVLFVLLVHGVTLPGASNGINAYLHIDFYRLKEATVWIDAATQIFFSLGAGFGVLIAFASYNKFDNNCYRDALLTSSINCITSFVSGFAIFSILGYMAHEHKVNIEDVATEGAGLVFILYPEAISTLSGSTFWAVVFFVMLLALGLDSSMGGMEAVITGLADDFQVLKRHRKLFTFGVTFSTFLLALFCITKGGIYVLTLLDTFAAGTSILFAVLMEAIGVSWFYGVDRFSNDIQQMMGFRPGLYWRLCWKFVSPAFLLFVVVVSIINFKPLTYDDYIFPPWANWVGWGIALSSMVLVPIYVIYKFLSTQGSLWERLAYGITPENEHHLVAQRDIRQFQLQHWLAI
T3 sequence (Q01959 whole entry): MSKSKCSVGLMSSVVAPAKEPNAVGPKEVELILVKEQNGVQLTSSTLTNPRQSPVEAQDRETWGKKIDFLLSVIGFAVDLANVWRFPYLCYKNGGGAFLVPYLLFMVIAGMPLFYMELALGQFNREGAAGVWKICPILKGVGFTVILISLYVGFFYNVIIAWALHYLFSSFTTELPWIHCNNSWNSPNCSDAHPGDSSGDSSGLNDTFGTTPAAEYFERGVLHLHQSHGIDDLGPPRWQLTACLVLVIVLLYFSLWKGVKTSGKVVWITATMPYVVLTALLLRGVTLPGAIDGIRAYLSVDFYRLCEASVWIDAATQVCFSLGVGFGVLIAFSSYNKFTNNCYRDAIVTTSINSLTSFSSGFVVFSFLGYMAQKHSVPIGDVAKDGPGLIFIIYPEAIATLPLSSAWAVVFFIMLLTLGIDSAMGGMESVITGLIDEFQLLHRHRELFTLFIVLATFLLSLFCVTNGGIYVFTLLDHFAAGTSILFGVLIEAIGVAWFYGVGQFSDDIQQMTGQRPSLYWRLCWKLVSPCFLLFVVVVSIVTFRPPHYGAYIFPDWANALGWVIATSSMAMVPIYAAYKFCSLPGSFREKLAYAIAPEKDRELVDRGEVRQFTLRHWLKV

CC(C)NC(C)C(=O)c1cccc(Cl)c1 (configuration not stated)
ED50 [1]: 8.8 mg/kg | Time to peak locomotor stimulation [2]: 20 min | Activity [3]: 73.5% | Activity [4]: 27% | Time [5]: 50 min | Activity [6]: 94.9% | Activity [7]: 43.8% | Activity [8]: 46% | Activity [9]: 0.3% | Ki [10]: > 10 µM | Activity [11]: 78.6% | ED50 [12]: 6.2 mg/kg | Activity [13]: 21.2% | Ki [14]: > 10 µM | Activity [15]: 53.3%

Cc1ccc(C(=O)C(C)NC(C)(C)C)cc1 (configuration not stated)
ED50 [1]: 17.3 mg/kg | Time to peak locomotor stimulation [2]: 30 min | Activity [3]: 66.7% | Ki [16]: > 10 µM | Time [5]: 60 min | Activity [6]: 100% | Activity [7]: 0.6% | Activity [8]: 26% | Ki [10]: > 10 µM | Activity [11]: 16.7% | ED50 [12]: 3.8 mg/kg

CC(NC1CC1)C(=O)c1cccc(Cl)c1 (configuration not stated)
Activity [17]: 34% | Time to peak locomotor stimulation [2]: 0 min | Activity [18]: 24% | Activity [19]: 0% | ED50 [20]: 12.8 mg/kg | Activity [21]: 67% | Activity [4]: 39.5% | Activity [22]: 1% | Activity [23]: 33% | Activity [24]: 2% | Activity [25]: 83% | Activity [26]: 0% | Activity [27]: 16% | Time [5]: 350 min | Activity [28]: 74% | Activity [29]: 0% | Activity [30]: 0% | Activity [31]: 0% | Activity [7]: 67.2% | Activity [32]: 0% | Activity [33]: 34% | Activity [34]: 9% | Activity [35]: 33% | Activity [36]: 34% | Activity [37]: 0% | Activity [8]: 82% | Activity [38]: 0% | Activity [9]: 63% | Activity [39]: 0% | Activity [40]: 0% | Activity [11]: 66.3% | Activity [41]: 0% | Activity [42]: 0% | ED50 [12]: 16.6 mg/kg | Activity [43]: 34% | Activity [13]: 21.5% | Activity [44]: 0% | Activity [45]: 0% | Activity [46]: 99% | Activity [15]: 66.7% | Activity [47]: 0%

CC(NC(C)(C)C)C(=O)c1ccc(Cl)cc1 (configuration not stated)
Activity [6]: 33.3% | Activity [7]: 0.1% | Activity [32]: 0% | Activity [38]: 0% | Ki [10]: > 10 µM | Activity [40]: 0% | Activity [11]: 18.1% | Activity [41]: 0% | Ki [14]: > 10 µM | Activity [15]: 32.7%

CC(C)CC(NC(C)(C)C)C(=O)c1cccc(Cl)c1 (configuration not stated)
Time to peak locomotor stimulation [2]: 260 min | Ki [16]: 0.14 µM | Time [5]: 60 min | Activity [8]: 89% | Ki [10]: 6.2 µM | IC50 [48]: 0.44 µM | ED50 [12]: 25.7 mg/kg | IC50 [49]: > 10 µM | Ki [14]: 2.3 µM | IC50 [50]: 0.36 µM

From ChEMBL document CHEMBL1156106 (J Med Chem, 2009)
